Source: patent US20070212403A1, “Method for Selecting Cationic or Anionic Liposomes for Treatment of a Mucosa Membrane, and Kit Comprising the Same” (Yissum Research Development Company of the Hebrew …, priority 2003, published 2007)

What was measured:
tumor recurrence = details: animal model, peritoneal wound site; cited from earlier work
[1] = test system: inflamed colonic epithelium of the rat; test: Tissue staining by charged dyes, inflamed colonic sacs; details: 15 min incubation, mean±SEM
Experimental: Twenty-four hours prior to colitis induction the rats were deprived of food, but allowed free access to water. The water contained 10 mg/l of the laxatives sennoside-A and sennoside-B (X-Prep Liquid®, Rafa Pharmaceuticals, Israel) and sucrose (200 g/l). With the rats under light ether inhalation anesthesia, colitis was induced by intracolonic administration of 30 mg of dinitrobenzensulfonic acid (DNBS) dissolved in 1 ml of an ethanolic solution 25% (v/v). The solution was instilled slowly over 20 s via a flexible, perforated foley catheter, which was then immediately removed, leaving the rats in an upside down position for another 40 s. Colonic sacs, of either healthy or inflamed rat colonic tissues, were prepared as described above and filled, in separate studies, with 0.5 ml of aqueous solutions (containing 2% v/v DMSO) of either of the cationic dye, hematoxylin (1 mg/ml), or the anionic dye, eosin B (0.5 mg/ml). The sacs were incubated in 15 ml of PBS containing glucose (10 mM), at 37° C. (glass vial) for 15 min in a shaking bath, after which the sacs were cut open, measured for their surface area (ruler) and rinsed (PBS) three times. […] The concentration of dyes in the tissue homogenates was measured spectrophotometrically (Uvikon 933, Kontron Switzerland), at 292 nm (hematoxylin) or 523 nm (eosin B).

[2] = test system: healthy colonic epithelium of the rat; test: Tissue staining by charged dyes, healthy colonic sacs; details: 15 min incubation, mean±SEM
Experimental: Colonic sacs, of either healthy or inflamed rat colonic tissues, were prepared as described above and filled, in separate studies, with 0.5 ml of aqueous solutions (containing 2% v/v DMSO) of either of the cationic dye, hematoxylin (1 mg/ml), or the anionic dye, eosin B (0.5 mg/ml). The sacs were incubated in 15 ml of PBS containing glucose (10 mM), at 37° C. (glass vial) for 15 min in a shaking bath, after which the sacs were cut open, measured for their surface area (ruler) and rinsed (PBS) three times. The tissues incubated with eosin B were then homogenized in 3 ml of absolute methanol, while the tissues incubated with hematoxylin were homogenized in 3 ml of absolute ethanol. The concentration of dyes in the tissue homogenates was measured spectrophotometrically (Uvikon 933, Kontron Switzerland), at 292 nm (hematoxylin) or 523 nm (eosin B).

jejunal mucosa = test: Local oxidative stress (hypoxanthine/xanthine oxidase-FeSO4) in perfused rat jejunum; assay type: in vivo; details: 20 min perfusion pretreatment before hydroxyl radical induction; for tissue LDH activity: mean±SEM
Experimental: Hydroxyl radicals were induced in the jejunum (15 cm long segment) of each of four group of anaesthetized Sabra rats, by the perfusion of a mixture of 6 mM hypoxanthine, 3 U/ml of xanthine oxidase, 10 mM FeSO4 and 1 mM EDTA in saline over 30 min, using a closed rat jejunal loop system at a rate of 1 ml/min, as described elsewhere [Kohen R. et al. J. Biol Chem. 1992, 267:21349-21354].
In separate studies two groups of rats (4 rats in each group) were perfused with either 35 U/ml SOD or liposomal SOD over 20 min. A 10 min saline rinse was then performed, followed by the hydroxyl radicals induction as described above. Similarly, the other two groups (4 rats each) were perfused with 5 mM free TMN or liposomal TMN over 20 min. A 10 min saline rinse was then performed, followed by hydroxyl radicals induction as described above. Control studies included (a) a group of rats, perfused with normal saline over 30 minutes prior to the oxidative damage induction, (b) a group of rats, perfused with normal saline for 20 min (naive control). At the end of each study, the perfused jejunal segment was separated from the anaesthetized animal, the mucosal epithelial layer delicately scraped and homogenized in 5 ml of distilled water on ice.
Assuming that tissue insult would cause leakage of enterocyte contents, the induced damage was characterized by measuring tissue (a) activity of lactate dehydrogenase (LDH) at 340 nm with pyruvic acid as the substrate and NADH as the electron donor. For this purpose, 1 ml of the tissue homogenate was centrifuged at 5000 g for 15 min. LDH activity was measured in the supernatant; (b) potassium levels by atomic absorption. All measurements were repeated four times, and the results were normalized to tissue dry weight.

[3] = test system: epithelium of the rat intestine; test: Tissue uptake of free and liposomal SOD and TMN in intestinal sacs; details: for tissue uptake: 60 min incubation, mean±SEM
Experimental: The abdomens of anesthetized healthy Sabra rats were cut open and 10 cm long segments of the distal colon were excised, separated and rinsed with PBS. Colon sacs (5 cm each) were prepared by tying one end with 3/0 silk suture, filling with 0.4 ml of free or liposomal suspension of either TMN or FITC-SOD (diluted×10 in PBS), and tying at the other end.
The sacs were incubated in 15 ml of PBS, containing 10 mM glucose, at 37° C., in a glass vial in a shaking bath for 60 min. At the end of the incubation, the sacs were cut open, rinsed three times by PBS immersion and weighed. For detection of FITC-SOD attachment and uptake (subsequently referred to generally as uptake, as internalization and attachment cannot be discriminated using these methods), the colon sac preparations were homogenized (Polytron, Kinematicas, Berlin, Germany) in a solution containing isopropanol: pH 9.0 borate buffer 9:1. One milliliter of the homogenate was centrifuged at 14,000 rpm for 15 min. The level of fluorescence in the supernatant was then measured by a spectrofluorimeter (Perkin-Elmer LS-SB, Bucks, England) at λ excitation=495, λ emission=525. For the detection of TMN uptake, tissues were homogenized in water containing 1% v/v TritonX-100. One ml of the homogenate was centrifuged (5000 rpm, 15 min), and TMN concentration was measured by EPR.

Compound	reduction of tumor recurrence (tumor recurrence)	dye attachment to inflamed colonic epithelium [1]	dye attachment to healthy colonic epithelium [2]	tissue potassium levels (jejunal mucosa)	tissue LDH activity (jejunal mucosa)	tissue uptake [3]	tissue uptake relative to free SOD uptake [3]
catalase	40%						
O=C(O)c1ccccc1-c1c2cc([N+](=O)[O-])c(=O)c(Br)c-2oc2c(Br)c(O)c([N+](=O)[O-])cc12 [eosin B]		0.19±0.012 μg/cm^2	0.12±0.011 μg/cm^2				
superoxide dismutase [native SOD]	50%			0.37±0.03 μmol/mg tissue	11.8±0.3 U/mg tissue	2.5±1.6 % uptake of initial amount	
Oc1cc2c(cc1O)[C@@H]1c3ccc(O)c(O)c3OC[C@]1(O)C2 [hematoxylin]		19.6±1.36 μg/cm^2	26.2±2.8 μg/cm^2				
CC1(C)CC(N)CC(C)(C)N1[O] [free TMN, 4-amino tempol]				0.33±0.08 μmol/mg tissue	9.0±1.3 U/mg tissue	6.8±1.1 % uptake of initial amount	3 fold
